Assay results from patent US20220054496A1, “MODULATION OF TRF1 FOR BRAIN CANCER TREATMENT” (Fundación Del Sector Público Estatal Centro Nacional De …, priority 2018, published 2022).
Entries after “also recorded” stand apart in the source; their conditions may differ.

How the values were obtained:
TRF1 [1] = assay: TRF1 nuclear immunofluorescence (TRF1 foci) in U251 cells; format: cell-based, human; conditions: 10 μM, 24 h or 48 hr
Experimental: For immunofluorescence analyses, cells were plated in a proper density in cell culture μCLEAR plates (Greiner) and fixed in 4% formaldehyde in PBS. Cells were permeabilized with 0.25% Triton in PBS and blocked with 5% BSA in PBS. Tissue sections were fixed in 10% buffered formalin (Sigma) and embedded in paraffin. After deparaffinization and citrate antigen retrieval, sections were permeabilized with 0.5% Triton in PBS and blocked with 1% BSA and 10% Australian FBS ([…]) in PBS. The antibodies were applied overnight in antibody diluents with background reducing agents (Invitrogen).
Immunofluorescence images were obtained using a confocal ultraspectral microscope (Leica TCS-SP5) or the Opera High Content Screening (HCS) system (Perkin Elmer). Quantifications were performed with Definiens software.
(§1) For in vitro studies, ETP-47228 ETP-47037 and ETP-50946 were dissolved in DMSO at a final concentration of 10 or 5 mM. Cells were treated at a concentration of 10 μM for 24 h or 48 hr.
(§2) To address whether these small molecules could represent a new therapeutic strategy for the treatment of GBM, the present inventors first tested the ability of the three independent TRF1 inhibitory molecules (ETP-47228, ETP-47037 and ETP-50946) to downregulate TRF1 protein levels in the U251 human GBM cell line.

TRF1 [2] = assay: Western blot of total TRF1 protein in U251 cells; format: cell-based, human; conditions: 10 μM, 24 h or 48 hr
Experimental: Nuclear protein extracts were obtained using Nuclear Cytosolic Fractionation Kit (Biovision) and protein concentration was determined using the Bio-Rad DC Protein Assay (Bio-Rad). Up to 15 μg of protein per extract were separated in SDS-polyacrylamide gels by electrophoresis. After protein transfer onto nitrocellulose membrane (Whatman), the membranes were incubated with the indicated antibodies. Antibody binding was detected after incubation with a secondary antibody coupled to horseradish peroxidase using chemiluminescence with ECL detection KIT (GE Healthcare)
Quantifications: Protein-band intensities were measured with ImageJ software and normalized against the loading control.
as §1, §2

U251 cells = assay: Neurosphere formation assay in U251 cells; format: cell-based, human; conditions: U251 in NSC media; seven days; vs DMSO
Experimental: (§3) Spheres were dissociated into single cells and seeded at a density of 50, 100, 200 and 400 cells/well in a 96 well plate. Neurosphere number was assessed after 7 days. Pictures were taken using Nikon Eclipse Ti-U microscope and neurosphere diameter was measured using NIS Elements BR software.
Finally, the present inventors checked if the three chemical compounds had the ability to reduce sternness in these cells. They cultured U251 cells with NSC media in order to obtain a suspension culture enriched in stem cells. The inventors performed a sphere formation assay with these cells treated with ETP-47228, ETP-47037 and ETP-50946 or DMSO for seven days. […] Of note, all these effects recapitulated what the present inventors observed with Trf1 genetic downregulation (See 2.2).

h676 GSCs = assay: Sphere formation assay in patient-derived h676 GSCs; format: cell-based, human; conditions: vs untreated controls
Experimental: (§4) FIG. 48. […] (A) Dose-response curves of the h676 GSCs treated 7 days with the indicated compounds. (B) Dose-response curves of the h543 GSCs treated 7 days with the indicated compounds. Data are represented as mean±SD.
as §3
(§5) Given the promising results the present inventors obtained with the TRF1 chemical modulators in the U251 GBM cell line, the present inventors next set to address the effects of these compounds in two independent patient-derived primary GSCs (h543 and h676) cultures.
(§6) Next, the present inventors set to address whether the different compounds were able to block sphere formation in the h676 and h543 GSCs.

h543 GSCs = assay: Sphere formation assay in patient-derived h543 GSCs; format: cell-based, human; conditions: vs untreated controls
Experimental: as §4, §3, §5, §6

h676 GSCs xenografts = assay: Subcutaneous xenograft of patient-derived h676 GSCs in nude mice; format: in vivo
Experimental: (§7) h676 and h543 patient-derived GSCs were dissociated using a 200 μl pipet and resuspended in NeuroCult medium and matrigel in a 1:1 ratio in a concentration of 1000 cell/μl. Nude mice (athymic Nude-Foxn1^nu/nu from Harlan) were injected subcutaneously with 100 μl of the cell preparation. ETP-47037 (or vehicle) was orally administrated at a concentration of 75 mg/kg 5 days per week (see also section 8), starting one week after cell injection. The vehicle consisted in 10% N-methyl-2-pyrrolidone (NMP, Sigma Aldrich) and 90% poly ethylene glycol (PEG, Sigma Aldrich). Mice were weighted and tumors were measured every 2-4 days. Tumor area was determined by the following equation: A=π*(a/2)*(b/2), were a and b are tumor length and width respectively.
(§8) For oral administration, ETP-47037 was dissolved in 10% N-methyl-2-pyrrolidone (NMP, Sigma Aldrich) and 90% polyethylene glycol (PEG, Sigma Aldrich) at a concentration of 75 mg/kg.
Next, the present inventors set to address whether TRF1 chemical inhibition was able to block tumor growth in vivo. […] Thus, the two independent primary GSCs (h676 and h543) were injected subcutaneously into nude mice. One week after GSC injection, mice received oral administration of the vehicle (NMP 10%, PEG 90%) as placebo or the ETP-47037 TRF1 inhibitor 5 days/week, every week until human endpoint, and tumors were continuously followed-up by caliper measurements (FIG. 42A).

h543 GSCs xenografts = assay: Subcutaneous xenograft of patient-derived h543 GSCs in nude mice; format: in vivo; conditions: oral 75 mg/kg 5 days/week, vs vehicle
Experimental: as §7, §8
(§9) Next, the present inventors set to address whether TRF1 chemical inhibition was able to block tumor growth in vivo. […] Thus, the two independent primary GSCs (h676 and h543) were injected subcutaneously into nude mice. […]

[3] = Crossing of the brain blood barrier
[4] = Sickness, morbidity and pathologies of xenograft mice after long-term treatment; format: in vivo
Experimental: as §7
Histopathological analysis was performed in paraffin embedded tissue sections stained with hematoxylin and eosin (H&E), with the assistance of the CNIO Histopathology Unit and Juana María Flores from the Universidad Complutense de Madrid (UCM).
as §9

[5] = system: K-Ras^G12V-induced lung tumors; conditions: p53-deficient background; cited from earlier work
[6] = GSC-derived xenografts, vs vehicle

## CS(=O)(=O)N1CCN(Cc2cc3c(N4CCOCC4)nc(-c4cnc(N)nc4)cn3n2)CC1 [ETP-47037]
TRF1 [1]
  TRF1 foci (immunofluorescence): effectively reduced
TRF1 [2]
  total TRF1 protein levels (western blot): effectively reduced
U251 cells
  diameter of neurospheres: strong reduction
  number of neurospheres: strong reduction
h676 GSCs
  diameter of spheres: significant drastic reduction
  number of spheres: significant drastic reduction
h543 GSCs
  diameter of spheres: significant drastic reduction
  number of spheres: significant drastic reduction
h676 GSCs xenografts; [6]
  proliferation marker Ki67-positive cells in tumors: reduces proliferation
  γH2AX DNA damage marker positive cells in tumors: induces DNA damage
h676 GSCs xenografts; h676 xenograft, oral 75 mg/kg 5 days/week, vs vehicle
  tumor areas (caliper follow-up): drastic reduction
h676 GSCs xenografts; h676 xenograft, vs placebo
  decrease of TRF1 protein levels in tumors (immunofluorescence): 80%
  tumor size post-mortem: striking decrease
  tumor weight post-mortem: striking decrease
h676 GSCs xenografts; xenografts after treatment
  histological analysis of the tumors: decreased cellularity in the tumors, together with necrotic areas, apoptotic bodies, compacted chromatin and fragmented DNA
h543 GSCs xenografts
  tumor areas (caliper follow-up): drastic reduction
[3]
  crossing the brain blood barrier: not crossing the brain blood barrier
[4]; one line per mouse (Mice 1-4)
  Mice pathologies after long-term treatment: Mice 3: dermatitis; also recorded: Mice 4: dermatitis; also recorded: Mice 2: dermatitis
[4]; treated cohorts compared to the placebo group
  signs of sickness or morbidity: did not detect any signs of sickness or morbidity
[5]
  growth of already established lung adenocarcinomas: effectively impair the growth

## Cc1cnc2c(N3CCOCC3)nc(-c3ccc(NC(=O)Nc4ccc(C(=O)N5CCN(C)CC5)cc4)cc3)cn12 [ETP-47228]
TRF1 [1]
  TRF1 foci (immunofluorescence): effectively reduced
TRF1 [2]
  total TRF1 protein levels (western blot): effectively reduced
U251 cells
  diameter of neurospheres: strong reduction
  number of neurospheres: strong reduction
h676 GSCs
  diameter of spheres: significant drastic reduction
  number of spheres: significant drastic reduction
h543 GSCs
  diameter of spheres: significant drastic reduction
  number of spheres: significant drastic reduction
[5]
  growth of already established lung adenocarcinomas: effectively impair the growth
